Assay results from patent publication US6447997B1, “Gene coding for GADD153 as a clinical diagnostic and prognostic in cancer therapy” (Research Development Foundation, priority 1997, dated 2002).

Key:
UMSCC10b-Pt/S15 = assay: Sensitivity to cDDP in vitro, clonogenic assay; assay type: cell-based, human; settings: subline UMSCC10b-Pt/S15
Procedure: (§1) UMSCC10b cells were selected for cDDP resistance by chronic exposure to cDDP which was supplied by (Bristol-Meyers-Squibb, Princeton, N.Y.). The first three selections were performed at a concentration of 0.5 μM which allowed approximately 10^7 cells to grow to confluence in a 150 cm^2 flask within one week. For every following set of 3 selections, the cDDP concentration was increased by approximately 20% (15,16). The sensitivity of the UMSCC10b cell line and its cDDP-resistant variants to cDDP was determined by clonogenic assay using a 1 h cDDP exposure. A single-cell suspension was plated into 60 mm tissue culture dishes (Corning) at 300 cells per dish in fresh medium. After incubation for 24 h at 37° C., cells had attached to the plates and cDDP was added to the cells and incubated for 1 h following which the cells were washed twice with phosphate-buffered saline and 5 ml of fresh medium was added. Cultures were incubated for an additional 13-15 days following which there were fixed with methanol, stained with Giemsa, and clusters of >50 cells were scored as colonies. cDDP-selected cells were cultured in drug-free media for 2 weeks before cDDP sensitivity was determined by clonogenic assay.

UMSCC10b-Pt/S6 = assay: Sensitivity to cDDP in vitro, clonogenic assay; assay type: cell-based, human; settings: subline UMSCC10b-Pt/S6
Procedure: as §1

GADD153 mRNA = GADD153 mRNA level in UMSCC10b xenografts in nude mice after cDDP; assay type: in vivo
Procedure: (§2) The various aspects of the invention are also useful for xenografted tumors. Nude mice were inoculated s.c. with human UMSCC10b tumor cells, and then treated with cDDP (0, 10, 15, 30 or 50 mg/kg cDDP i.p.) when the tumors reached 1 ml in volume. FIG. 5a depicts the results obtained when tumors were harvested at 24 h after cDDP treatment. […] The time course of the change in message level in the xenografts was similar to that observed with in vitro exposure of the cells (FIG. 5b). Thus, GADD153 mRNA levels can be increased in vivo by cDDP doses around the maximum tolerated dose in this system (15-20 mg/kg cDDP).
UMSCC10b cells were injected subcutaneously over the shoulder of athymic (BALB/c nu/nu) female mice, 3-4 weeks of age (Harlan Sprague Dawley, Indianapolis, Ind.). The xenografts were allowed to grow until they reached approximately […] in volume, at which time cDDP treatment was initiated. […]
GADD153 message levels were quantified using a modification of the technique reported by Horikoshi et al (20). […] PCR products were separated on a 8 M (6%) acrylamide gel and analyzed using a Molecular Imaging System (BioRad, Hercules, Calif.). For each RNA sample to be analyzed, a series of PCR reactions was performed to generate a graph of the amount of PCR product as a function of input CDNA for both GADD153 and β-ACTIN. […]

[1] = Maximum tolerated dose of cDDP in the nude mouse xenograft system; assay type: in vivo; settings: nude mice, i.p.
Procedure: as §2

[2] = tested on: stage IV head and neck cancer; assay: Tumor clinical response of patients to cDDP-based treatment; assay type: in vivo, human; settings: i.a. cDDP with i.v. sodium thiosulfate, with or without radiation therapy
Procedure: Thirty-two patients with previously untreated stage IV head and neck cancer were treated at the UCSD Cancer Center on a phase I/II experimental protocol. All patients had been considered to have unresectable tumors. All patients received i.a. cDDP (150-200 mg/M^2) and i.v. sodium thiosulfate infusion concurrently. The details of this treatment program have been published elsewhere by the present inventors (17,18), which description is specifically incorporated herein by reference. cDDP was dissolved in 400 ml of 0.9% saline and infused over 3-5 minutes through a microcatheter placed angiographically to selectively encompass the dominant blood supply of the targeted tumor. Simultaneous with the cDDP infusion, sodium thiosulfate was infused i.v. at a dose of 9 g/m^2 dissolved in 300 ml of distilled water over 3 minutes, followed by 12 g/m^2 dissolved in one liter of distilled water over 6 h by continuous infusion to prevent severe nephrotoxicity. Treatment was repeated weekly for a total of 4 doses. In addition, 17 of the 32 patients received radiotherapy in doses of […] (×35 fractions) starting concurrently with the start of cDDP treatment. Needle aspiration or small cutting needle biopsies were obtained just before and at 24 h following the first dose of cDDP. Tumor response was assessed at 2 months using criteria based on physical examination, repeat computed tomography/magnetic resonance imaging studies, and repeat endoscopy and biopsy.

[NH2][Pt]([NH2])([Cl])[Cl] [cDDP, cisplatin]
cDDP resistance relative to parental cells (UMSCC10b-Pt/S15): 6 fold | cDDP resistance relative to parental cells (UMSCC10b-Pt/S6): 3 fold | time of return of GADD153 mRNA toward basal levels in vivo (GADD153 mRNA; UMSCC10b xenografts after treatment): ≤ 96 h | GADD153 mRNA levels in xenografts (GADD153 mRNA; tumors harvested 24 h after cDDP i.p., 0-50 mg/kg): increased as a function of cDDP dose | maximum tolerated dose [1]: 15 to 20 mg/kg | patients who achieved a partial regression (PR) ([2]; assessed at 2 months): 8 of the 32 | patients who attained a complete regression of the tumor (CR) ([2]; assessed at 2 months): 17 of the 32 | patients who had tumor progression (NR) ([2]; of 32 patients): 7 patients
